Tests used:
Aβ1–42 = biological target: T1, Aβ1–42 (Homo sapiens, UniProt P05067); assay: Anti-Aβ aggregation activity (Thioflavin T fluorescence assay); type: biochemical; conditions: for IC50: ThT assay, Aβ1–42, 24 h, room temperature, pH 7.4, read-out: IC50 (µM) ± RSD, antiaggregation action on Aβ42
T1 construct: Amyloid beta (Aβ1–42) was purchased from the American Peptide Company; purchased American Peptide Company (Sunnyvale, CA, USA)
Protocol: Each compound was diluted in 50 mM Tris-HCl (pH 7.4) to achieve a concentration between 10 nM and 100 µM using 5 concentration points. A total of 1 µL of each sample solution was added to 96-well plates. […] The plate was incubated in the dark at room temperature for 24 h with no agitation. After an incubation period, 200 µL of 5 µM ThT in 50 mM Tris-HCl (pH 7.4) was added to each well. Fluorescence was measured on a SpectraMax GEMINI EM (Molecular Devices, Sunnyvale, CA, USA) dual scanning microplate spectrofluorometer with excitation and emission wavelengths at 446 nm and 500 nm, respectively. The percent of antiaggregation was calculated as follows: [1 − (Fsample − Fblank)/Fcontrol] × 100.

in vitro = conditions: human
Protocol: (§1) SK-N-SH cells were pretreated for 3 h with the respective half-maximal inhibitory doses of the tested compounds (except 9 and 10) before incubating with 25 μM Aβ42 for 24 h to determine the neuroprotective effect against Aβ42-induced toxicity. The relative cell viability (compared with the control) was then assessed.
(§2) Quantitative measurement of cell viability was performed by MTT assay. Briefly, SK-N-SH cells were seeded at a density of 5 × 10^4 cells/100 µL into each well of 96-well plate and incubated at 37 °C in 5% CO2 for 24 h. After incubation, the tested compounds were added at different concentrations, from 0 to 1000 µM. After incubation for 24 h, 50 µL of 3-(4,5-dimethylthiazol-2-yl)-2,5-diphenyltetrazolium bromide (MTT) stock solution (1 mg/mL) was added to each well and incubated at 37 °C for 3 h. Absorbance (A) of each well was measured using a plate reader at a wavelength of 590 nm. Three independent experiments were performed, and results were expressed as mean ± SD. […] Each concentration was prepared in triplicate. […] After incubation for 24 h, 50 µL of MTT stock solution (1 mg/mL) was added to each well and incubated at 37 °C for 3 h. The absorbance (A) of each well was measured using a plate reader at a wavelength of 590 nm. Three independent experiments were performed, and results were expressed as mean ± SD.
(§3) The percent of cell viability was calculated as follow: (A590nm of treated cells/A590nm of untreated cells) × 100.

[1] = system: SK-N-SH neuroblastoma cells; assay: Cytotoxicity on SK-N-SH neuroblastoma cells (MTT assay); conditions: MTT, 24 h; for Highest concentration that showed nontoxicity on SK-N-SH cells: tested 0–1000 µM; for % Viability ± RSD at the highest nontoxic concentration: at the concentration of Table 2
Protocol: as §1, §2, §3

[2] = Antioxidant activity (DPPH assay); conditions: for IC50: DPPH 0.4 mM, 30 min in darkness, read-out: IC50 (µM) ± RSD, antioxidative activity
Protocol: Increased generation of free radicals also results in cytotoxicity from Aβ42. This effect might be associated with the Aβ1–42 mediated neurotoxicity. Therefore, it was intriguing to research the roles of the synthesized compounds in assisting oxidative stress, thus preventing cell death. By employing vitamin C as a positive control, the antioxidative properties of synthesized compounds were assessed using the DPPH assay. The activities were presented as the IC50 in Table 4.
Antioxidant activity of tested compounds was determined by the reaction of stable DPPH radical with some modification. Briefly, various concentrations of test compounds were added in 96-well plates and then the methanolic DPPH solution (0.4 mM, 0.1 mL) into each well. The reaction mixture was placed for 30 min in darkness. The degree of purple DPPH decolorization to yellow DPPH indicated the scavenging capacity of the test compounds. The absorbance of the mixture was determined at 517 nm using a microplate reader and L-ascorbic acid served as a positive control. The percent of antioxidant activity was calculated as follow: [1 − (Asample − Ablank)/Acontrol] × 100.

[3] = biological target: T2, Acetylcholinesterase (AChE) (Electrophorus electricus, UniProt O42275); assay: Antiacetylcholinesterase activity (Ellman assay); type: biochemical, Electrophorus electricus (electric eel); conditions: for inhibition at 100 µM: read-out: % Inhibition ± RSD of acetylcholinesterase; for % Inhibition ± RSD of acetylcholinesterase: at 100 µM
T2 construct: purchased Sigma type VI-S
Protocol: All the chemicals were purchased from commercial suppliers and were used without any purification. Acetylcholinesterase from Electrophorus electricus (electric eel) type VI-S was produced from Sigma. […] SK-N-SH human neuroblastoma cell line was obtained from the American Type Culture Collection (ATCC HTB-11). The melting point of all compounds was determined on an Electrothermal model 9100 capillary melting point apparatus. Infrared (IR) spectra were run on Fourier Transform Infrared Spectroscopy (FT-IR) (Nicolet 6700, Thermo Scientific, Waltham, MA, USA) using the direct compression technique and record in cm^−1. Proton and carbon nuclear magnetic resonance (^1H NMR, ^13C NMR) spectra were obtained on an Advance 300 MHz NMR Spectroscopy (DPX-3000, Bruker, Switzerland) at 300 MHz and 75.45 MHz, respectively. Chemical shifts (δ) were reported in parts per million (ppm). The NMR solvents used were deuterated dimethylsulfoxide (DMSO-d6, δ = 2.49 ppm) and deuterated chloroform (CDCl3, δ = 7.25 ppm). Mass spectra were determined on a LCQ Fleet Ion Trap Mass Spectrometry using the ESI method. Silica gel 60 (Merck, Art 7734) was used for column chromatography as an adsorbent. The ratio of sample and the adsorbent was about 1:40–60 by weight. The mobile phases developed for thin-layer chromatography (TLC) were generally applied for a column. TLC investigations routinely used for chromatographic separations were carried out on silica gel F254 coated aluminum sheets 20 × 20 cm (Merck, 0.2 mm thickness). The components were detected by visualization under ultraviolet (UV) light at λ of 254 and 365 nm. All solvents were reagent grade and, when necessary, were purified and dried by standard methods. Starting materials and reagents were obtained from commercial suppliers.
Acetylcholinesterase (AChE) inhibitory activity was assayed by modified Ellman’s method using 96-well microplates. […] The absorbance of the mixture in each well was measured at 405 nm by using a microplate reader. After adding 25 µL of 0.22 U/mL AChE in Buffer II into each well, the measurement of absorbance was carried out again at 405 nm and repeated every 45 s for 10 min cycles by a microplate reader (Infinite M200, Tecan, Switzerland). […] The assay was performed in triplicate. […] The percent of enzyme inhibition was calculated as follows: {[(A-B) − (C − D)]/(A − B)} × 100, where A and C were the absorbances of the control treatment and test compounds; and B and D were blank of control and test compounds.

[4] = system: SK-N-SH neuroblastoma cells; assay: Protection of SK-N-SH neuroblastoma against Aβ42-induced cell death (MTT assay); conditions: for viability at 31.25 µM: Homo sapiens, SK-N-SH, read-out: % Viability ± RSD, neuroprotective effect against Aβ induced damage; for % Viability ± RSD, neuroprotective effect against Aβ induced damage: pretreated 3 h at IC50 of antiaggregation (compounds 9 and 10 at 31.25 µM), then 25 µM Aβ42 for 24 h
Protocol: The effects of Aβ42 on the viability of SK-N-SH neuroblastoma cells were investigated using an MTT reduction test. MTT is a tetrazolium salt that can be reduced to formazan by mitochondria dehydrogenase; the reaction is active only in living cells.
The relative cell viability (compared with the control) was then assessed.
as §2, §3

T1 sequence (P05067 672-713): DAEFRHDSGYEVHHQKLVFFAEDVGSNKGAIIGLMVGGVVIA
T2 sequence (O42275 24-633): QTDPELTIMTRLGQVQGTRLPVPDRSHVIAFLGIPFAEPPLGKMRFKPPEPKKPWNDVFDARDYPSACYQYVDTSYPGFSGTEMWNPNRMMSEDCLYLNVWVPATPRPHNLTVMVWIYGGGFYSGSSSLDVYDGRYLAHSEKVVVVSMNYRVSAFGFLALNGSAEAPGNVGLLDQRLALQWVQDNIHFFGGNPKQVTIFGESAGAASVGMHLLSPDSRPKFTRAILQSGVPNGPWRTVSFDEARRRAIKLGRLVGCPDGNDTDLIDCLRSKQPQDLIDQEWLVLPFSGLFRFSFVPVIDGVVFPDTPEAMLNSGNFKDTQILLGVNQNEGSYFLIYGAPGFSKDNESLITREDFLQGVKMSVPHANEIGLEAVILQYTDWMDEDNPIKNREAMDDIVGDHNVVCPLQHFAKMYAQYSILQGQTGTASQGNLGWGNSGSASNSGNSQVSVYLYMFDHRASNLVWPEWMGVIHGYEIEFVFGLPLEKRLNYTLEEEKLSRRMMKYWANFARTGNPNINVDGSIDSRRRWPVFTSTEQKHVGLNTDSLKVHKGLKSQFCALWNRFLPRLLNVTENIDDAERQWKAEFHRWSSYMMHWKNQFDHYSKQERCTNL

Row | Compound | IC50 (Aβ1–42) [µM] | viability at 24 h (in vitro) [%] | Highest concentration that showed nontoxicity on SK-N-SH cells [1] | IC50 [2] [µM] | inhibition at 100 µM [3] [%] | viability at 31.25 µM [4] [%] | % Viability ± RSD at the highest nontoxic concentration [1] [%] | Fold more potent against Aβ aggregation than methyl ester 7 (Aβ1–42; compared to compound 7) [fold] | % Viability ± RSD, neuroprotective effect against Aβ induced damage [4] [%] | % Inhibition ± RSD of acetylcholinesterase [3] [%] | Fold reduction of anti-Aβ aggregation versus compound 9 (Aβ1–42; p-CH3 (compound 9) replaced with p-F (compound 10)) [fold] | Fold increase of antioxidant potency versus compound 9 ([2]; p-CH3 (compound 9) converted to p-F (compound 10)) [fold] | Fold less potent antioxidant than compound 5 ([2]; compared to compound 5) [fold]
1 | Cc1[nH]c2ccc(Oc3ccccc3)cc2c1CC(=O)O [Compound 3, 2-Methyl-3-(carboxymethyl)-5-phenoxy Indole] | 18.8 | 90.4 ± 3.69 | 31.25 µM | 47.1 | 29.3 | – | – | – | – | – | – | – | –
2 | COc1cc(/C=C/C(=O)CC(=O)/C=C/c2ccc(O)c(OC)c2)ccc1O [Curcumin, reference compound] | – | 94.4 ± 1.83 | 15.63 µM | – | – | – | – | – | – | – | – | – | –
3 | Cc1[nH]c2ccc(Oc3ccccc3)cc2c1CC(=O)Nc1ccccc1 [Compound 11, 2-Methyl-3-(phenylethanamide-2-yl)-5-phenoxy Indole] | 13.1 | 94.3 ± 3.31 | 15.63 µM | 111 | 30 | – | – | – | – | – | – | – | –
4 | COC(=O)Cc1c(C)[nH]c2ccc(Oc3ccccc3)cc12 [Compound 7, 2-Methyl-3-(methyl ethanoate-2-yl)-5-phenoxy Indole] | 14 | 93.4 ± 2.15 | 31.25 µM | 145 | 11 | 83.7 ± 2.21 | – | – | – | – | – | – | –
5 | C[S+](C)[O-] [DMSO] | – | – | – | – | – | – | 92.08 ± 2.86 | – | – | – | – | – | –
6 | O=C1O[C@H]([C@@H](O)CO)C(O)=C1O [Vitamin C, L-ascorbic acid, reference compound] | – | – | – | 13.3 | – | – | – | – | – | – | – | – | –
7 | CNC(=O)Cc1c(C)[nH]c2ccc(Oc3ccccc3)cc12 [Compound 4, 2-Methyl-3-(methylethanamide-2-yl)-5-phenoxy Indole] | 3.26 | 93.7 ± 3.23 | 31.25 µM | 176 | 9.73 | 72.3 ± 1.85 | – | 4.3 | – | – | – | – | –
8 | Cc1ccc(S(=O)(=O)NC(=O)Cc2c(C)[nH]c3ccc(Oc4ccccc4)cc23)cc1 [Compound 12, 2-Methyl-3-(4-methylbenzesulfonylethanamide-2-yl)-5-phenoxy Indole] | 9.48 | – | 15.63 µM | 121 | – | – | 90.73 ± 4.64 | – | 71.85 ± 1.82 | 31.52 ± 4.90 | – | – | –
9 | CCOC(=O)Cc1c(C)[nH]c2ccc(Oc3ccccc3)cc12 [Compound 6, 2-Methyl-3-(ethyl ethanoate-2-yl)-5-phenoxy Indole] | 19.1 | 89.5 ± 2.11 | 31.25. µM | 190 | 19.9 | – | – | – | – | – | – | – | –
10 | Cc1[nH]c2ccc(Oc3ccccc3)cc2c1CC(=O)NCc1ccc(F)cc1 [Compound 10, 2-Methyl-3-(4-fluorobenzylethanamide-2-yl)-5-phenoxy Indole] | 72.7 | – | 31.25 µM | 86 | – | – | 80.51 ± 3.96 | – | 63.05 ± 2.70 | 12.45 ± 4.98 | 1.4 | 3.08 | –
11 | Cc1[nH]c2ccc(Oc3ccccc3)cc2c1CC(=O)NC#N [Compound 8, 2-Methyl-3-(cyanoethanamide-2-yl)-5-phenoxy Indole] | 20.6 | 93.8 ± 3.66 | 62.50 µM | 85.5 | 6.61 | – | – | – | – | – | – | – | 3.03
12 | Cc1ccc(CNC(=O)Cc2c(C)[nH]c3ccc(Oc4ccccc4)cc23)cc1 [Compound 9, 2-Methyl-3-(4-methylbenzylethanamide-2-yl)-5-phenoxy Indole] | 53.7 | – | 31.25 µM | 265 | – | – | 95.21 ± 3.00 | – | 80.38 ± 3.54 | 12.5 ± 4.57 | – | – | –
